Measured values taken from ChEMBL document CHEMBL5120750, “Bis-bibenzyls, Bibenzyls, and Terpenoids in 33 Genera of the Marchantiophyta (Liverworts): Structures, Synthesis, and Bioactivity” (2022).
Values after ≈ are worked out from the molar mass of the structure shown.

Experiments:
Saccharomyces cerevisiae [1] = experiment: Antibacterial activity against Saccharomyces cerevisiae; type: functional
Saccharomyces cerevisiae [2] = experiment: Bactericidal activity against Saccharomyces cerevisiae; type: functional

## Oc1cc2cc(c1O)Oc1ccc(cc1)CCc1cccc(O)c1Oc1cccc(c1)CC2 [MARCHANTIN A]
Saccharomyces cerevisiae [1]
  MIC: 0.98 µg/mL (≈ 2.22 µM)
Saccharomyces cerevisiae [2]
  MBC: 0.98 µg/mL (≈ 2.22 µM)

## Oc1cccc(CCc2ccc(Oc3cc(CCc4cccc(O)c4)cc(O)c3O)cc2)c1 [PERROTETTIN F]
Saccharomyces cerevisiae [1]
  MIC: 0.98 µg/mL (≈ 2.21 µM)
Saccharomyces cerevisiae [2]
  MBC: 0.98 µg/mL (≈ 2.21 µM)
